Experimental data from US6469127B1, “Polycarbonate resin having low tendency of releasing environmental endocrine disruptors” (Space Environmental Technology Company, Inc,, priority 1999, dated 2002).

Biological target: T1, Estrogen Receptor (Homo sapiens, UniProt P03372)
T1 sequence (P03372 1-595): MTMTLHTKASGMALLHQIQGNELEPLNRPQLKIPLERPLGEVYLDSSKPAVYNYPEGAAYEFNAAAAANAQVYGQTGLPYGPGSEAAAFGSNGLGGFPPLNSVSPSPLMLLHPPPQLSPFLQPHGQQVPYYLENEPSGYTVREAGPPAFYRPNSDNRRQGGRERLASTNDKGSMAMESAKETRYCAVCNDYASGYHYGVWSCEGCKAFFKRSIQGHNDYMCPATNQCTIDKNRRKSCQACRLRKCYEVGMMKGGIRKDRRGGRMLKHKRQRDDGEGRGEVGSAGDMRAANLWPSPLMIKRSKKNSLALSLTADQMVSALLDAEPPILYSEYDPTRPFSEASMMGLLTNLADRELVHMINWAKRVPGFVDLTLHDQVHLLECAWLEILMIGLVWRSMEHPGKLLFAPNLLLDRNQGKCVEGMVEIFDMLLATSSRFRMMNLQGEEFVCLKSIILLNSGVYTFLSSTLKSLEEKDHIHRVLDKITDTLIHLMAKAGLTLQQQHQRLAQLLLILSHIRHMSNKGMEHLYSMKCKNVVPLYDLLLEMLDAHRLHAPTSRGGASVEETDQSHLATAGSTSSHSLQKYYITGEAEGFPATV
Test: Tendency to link to estrogen receptor (IC50 of bisphenols and reference compounds, Table 1)
Type: binding
Settings: concentration required to substitute 50% of genuine hormone linked to receptor

Compound: CCCCCCCCCc1ccc(O)cc1 [4-Nonylphenol]
- IC50: 3.9 µM
